Experimental data as given in paper PMC10599993, “The PTPN2/PTPN1 inhibitor ABBV-CLS-484 unleashes potent anti-tumour immunity” (Nature, 2023).

Legend:
Test in all cases: biochemical
Set-up in all cases: Kinase selectivity panel, IC50 of AC484 (Supplementary Table 1)
ACVR1 = ACVR1 (Homo sapiens, UniProt Q04771)
BMX = BMX (Homo sapiens, UniProt P51813)
BRAF = BRAF (Homo sapiens, UniProt P15056)
CAMK1D = CAMK1D (Homo sapiens, UniProt Q8IU85)
CAMKK2 = CAMKK2 (Homo sapiens, UniProt Q96RR4)
CDK8/Cyclin C = CDK8/Cyclin C (Homo sapiens, UniProt P49336)
CSF1R = CSF1R (Homo sapiens, UniProt P07333)
Ck1alpha1 = molecular target: T1, Ck1alpha1 (Homo sapiens, UniProt P48729)
T1 construct: gene CSNK1A1
T1 sequence (P48729 whole entry): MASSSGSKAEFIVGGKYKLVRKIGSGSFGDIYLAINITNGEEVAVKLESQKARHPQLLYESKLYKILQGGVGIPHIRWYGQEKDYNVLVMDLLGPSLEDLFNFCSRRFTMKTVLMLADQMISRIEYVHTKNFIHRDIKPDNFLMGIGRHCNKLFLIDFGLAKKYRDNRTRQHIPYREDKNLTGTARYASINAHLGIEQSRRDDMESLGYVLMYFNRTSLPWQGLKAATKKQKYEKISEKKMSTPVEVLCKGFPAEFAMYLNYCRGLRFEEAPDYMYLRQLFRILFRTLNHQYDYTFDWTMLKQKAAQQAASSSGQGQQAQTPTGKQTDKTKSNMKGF

ErbB4 = ErbB4 (Homo sapiens, UniProt Q15303)
Chain of ErbB4 (Q15303 whole entry): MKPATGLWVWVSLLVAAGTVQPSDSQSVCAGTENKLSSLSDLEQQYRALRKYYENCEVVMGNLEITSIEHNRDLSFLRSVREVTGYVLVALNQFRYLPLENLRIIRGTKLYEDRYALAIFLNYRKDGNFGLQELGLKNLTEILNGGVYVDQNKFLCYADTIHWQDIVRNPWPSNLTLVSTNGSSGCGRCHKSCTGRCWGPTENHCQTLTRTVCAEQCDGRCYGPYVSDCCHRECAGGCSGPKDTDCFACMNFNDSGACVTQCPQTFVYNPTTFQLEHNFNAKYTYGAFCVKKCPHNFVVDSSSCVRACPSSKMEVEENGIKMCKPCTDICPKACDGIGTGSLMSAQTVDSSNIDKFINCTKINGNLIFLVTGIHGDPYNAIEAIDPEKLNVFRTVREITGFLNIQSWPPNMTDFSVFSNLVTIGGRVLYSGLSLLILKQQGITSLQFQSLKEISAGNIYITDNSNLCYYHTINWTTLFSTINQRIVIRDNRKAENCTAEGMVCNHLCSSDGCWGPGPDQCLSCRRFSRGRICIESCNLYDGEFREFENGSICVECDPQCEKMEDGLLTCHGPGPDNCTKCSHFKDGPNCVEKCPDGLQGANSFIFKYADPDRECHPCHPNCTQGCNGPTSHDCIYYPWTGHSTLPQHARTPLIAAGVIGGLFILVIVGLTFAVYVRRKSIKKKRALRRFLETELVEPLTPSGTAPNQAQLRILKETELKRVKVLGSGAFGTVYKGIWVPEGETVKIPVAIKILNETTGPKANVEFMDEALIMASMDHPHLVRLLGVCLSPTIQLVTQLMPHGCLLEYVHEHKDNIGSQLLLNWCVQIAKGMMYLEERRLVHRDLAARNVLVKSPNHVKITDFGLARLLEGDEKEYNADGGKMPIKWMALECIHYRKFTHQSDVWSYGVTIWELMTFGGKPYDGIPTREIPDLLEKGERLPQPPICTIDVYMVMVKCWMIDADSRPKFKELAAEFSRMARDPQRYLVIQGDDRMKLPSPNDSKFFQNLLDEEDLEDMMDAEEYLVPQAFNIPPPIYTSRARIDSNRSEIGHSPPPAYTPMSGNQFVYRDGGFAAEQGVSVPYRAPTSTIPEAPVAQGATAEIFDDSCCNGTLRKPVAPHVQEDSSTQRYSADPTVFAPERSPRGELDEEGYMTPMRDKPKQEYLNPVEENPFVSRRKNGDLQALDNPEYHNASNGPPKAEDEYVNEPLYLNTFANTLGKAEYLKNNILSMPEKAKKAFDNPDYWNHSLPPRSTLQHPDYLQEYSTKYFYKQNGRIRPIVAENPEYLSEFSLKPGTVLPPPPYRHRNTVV

FAK = molecular target: T2, FAK (Homo sapiens, UniProt Q05397)
T2 construct: gene PTK2

FGR = FGR (Homo sapiens, UniProt P09769)
Fyn = Fyn (Homo sapiens, UniProt P06241)
IKKE = molecular target: T3, IKKE (Homo sapiens, UniProt Q14164)
T3 construct: gene IKBKE

ITK = ITK (Homo sapiens, UniProt Q08881)
JAK2 = JAK2 (Homo sapiens, UniProt O60674)
Lck = Lck (Homo sapiens, UniProt P06239)
MAP3K10 = MAP3K10 (Homo sapiens, UniProt Q02779)
Chain of MAP3K10 (Q02779 whole entry): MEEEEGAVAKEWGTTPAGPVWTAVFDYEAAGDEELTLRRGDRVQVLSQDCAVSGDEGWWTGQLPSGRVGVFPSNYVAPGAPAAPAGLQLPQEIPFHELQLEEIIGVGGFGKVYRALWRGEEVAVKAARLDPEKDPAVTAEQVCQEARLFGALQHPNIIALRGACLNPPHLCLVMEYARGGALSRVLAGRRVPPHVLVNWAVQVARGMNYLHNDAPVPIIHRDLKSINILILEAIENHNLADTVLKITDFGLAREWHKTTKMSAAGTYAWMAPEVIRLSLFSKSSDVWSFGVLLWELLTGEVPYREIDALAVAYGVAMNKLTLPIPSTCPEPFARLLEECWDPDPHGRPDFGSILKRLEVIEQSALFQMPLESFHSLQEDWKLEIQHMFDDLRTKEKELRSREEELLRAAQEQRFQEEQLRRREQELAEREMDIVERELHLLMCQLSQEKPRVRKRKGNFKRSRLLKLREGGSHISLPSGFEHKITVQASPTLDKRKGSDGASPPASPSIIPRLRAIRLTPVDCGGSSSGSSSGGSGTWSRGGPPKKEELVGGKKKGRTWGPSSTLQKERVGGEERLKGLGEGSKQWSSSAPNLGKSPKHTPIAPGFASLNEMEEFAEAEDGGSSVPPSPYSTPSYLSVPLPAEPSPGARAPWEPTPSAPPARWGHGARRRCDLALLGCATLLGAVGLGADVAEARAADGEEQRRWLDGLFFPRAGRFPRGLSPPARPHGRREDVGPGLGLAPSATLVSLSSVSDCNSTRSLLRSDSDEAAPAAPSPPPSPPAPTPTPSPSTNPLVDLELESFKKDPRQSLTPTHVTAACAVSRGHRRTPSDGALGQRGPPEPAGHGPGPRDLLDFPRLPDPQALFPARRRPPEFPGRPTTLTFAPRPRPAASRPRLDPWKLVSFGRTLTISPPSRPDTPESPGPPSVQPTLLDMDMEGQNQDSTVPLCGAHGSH

MAP4K3 = MAP4K3 (Homo sapiens, UniProt Q8IVH8)
MST1 = molecular target: T4, MST1 (Homo sapiens, UniProt Q13043)
T4 construct: gene STK4
T4 sequence (Q13043 whole entry): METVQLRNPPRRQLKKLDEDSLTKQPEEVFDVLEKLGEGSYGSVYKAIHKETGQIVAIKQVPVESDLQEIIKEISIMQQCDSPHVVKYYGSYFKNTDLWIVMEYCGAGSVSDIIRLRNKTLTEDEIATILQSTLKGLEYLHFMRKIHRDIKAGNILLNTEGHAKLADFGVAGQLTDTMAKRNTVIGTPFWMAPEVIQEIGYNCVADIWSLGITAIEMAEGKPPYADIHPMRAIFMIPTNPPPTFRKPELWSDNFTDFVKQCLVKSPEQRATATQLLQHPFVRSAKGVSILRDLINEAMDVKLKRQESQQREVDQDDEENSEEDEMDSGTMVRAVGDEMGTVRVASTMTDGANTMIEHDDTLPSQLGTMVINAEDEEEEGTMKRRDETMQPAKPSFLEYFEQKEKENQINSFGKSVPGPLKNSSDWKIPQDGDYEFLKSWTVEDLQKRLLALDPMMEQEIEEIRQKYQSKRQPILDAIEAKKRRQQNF

PKC alpha-UBI = molecular target: T5, PKC alpha-UBI (Homo sapiens, UniProt P17252)
T5 construct: gene PRKCA

PKCzeta = molecular target: T6, PKCzeta (Homo sapiens, UniProt Q05513)
T6 construct: gene PRKCZ

PKG1A = molecular target: T7, PKG1A (Homo sapiens, UniProt Q13976)
T7 construct: gene PRKG1; isoform 1 alpha

STK16 = STK16 (Homo sapiens, UniProt O75716)
Syk = Syk (Homo sapiens, UniProt P43405)
TAOK2 = TAOK2 (Homo sapiens, UniProt Q9UL54)
Chain of TAOK2 (Q9UL54 whole entry): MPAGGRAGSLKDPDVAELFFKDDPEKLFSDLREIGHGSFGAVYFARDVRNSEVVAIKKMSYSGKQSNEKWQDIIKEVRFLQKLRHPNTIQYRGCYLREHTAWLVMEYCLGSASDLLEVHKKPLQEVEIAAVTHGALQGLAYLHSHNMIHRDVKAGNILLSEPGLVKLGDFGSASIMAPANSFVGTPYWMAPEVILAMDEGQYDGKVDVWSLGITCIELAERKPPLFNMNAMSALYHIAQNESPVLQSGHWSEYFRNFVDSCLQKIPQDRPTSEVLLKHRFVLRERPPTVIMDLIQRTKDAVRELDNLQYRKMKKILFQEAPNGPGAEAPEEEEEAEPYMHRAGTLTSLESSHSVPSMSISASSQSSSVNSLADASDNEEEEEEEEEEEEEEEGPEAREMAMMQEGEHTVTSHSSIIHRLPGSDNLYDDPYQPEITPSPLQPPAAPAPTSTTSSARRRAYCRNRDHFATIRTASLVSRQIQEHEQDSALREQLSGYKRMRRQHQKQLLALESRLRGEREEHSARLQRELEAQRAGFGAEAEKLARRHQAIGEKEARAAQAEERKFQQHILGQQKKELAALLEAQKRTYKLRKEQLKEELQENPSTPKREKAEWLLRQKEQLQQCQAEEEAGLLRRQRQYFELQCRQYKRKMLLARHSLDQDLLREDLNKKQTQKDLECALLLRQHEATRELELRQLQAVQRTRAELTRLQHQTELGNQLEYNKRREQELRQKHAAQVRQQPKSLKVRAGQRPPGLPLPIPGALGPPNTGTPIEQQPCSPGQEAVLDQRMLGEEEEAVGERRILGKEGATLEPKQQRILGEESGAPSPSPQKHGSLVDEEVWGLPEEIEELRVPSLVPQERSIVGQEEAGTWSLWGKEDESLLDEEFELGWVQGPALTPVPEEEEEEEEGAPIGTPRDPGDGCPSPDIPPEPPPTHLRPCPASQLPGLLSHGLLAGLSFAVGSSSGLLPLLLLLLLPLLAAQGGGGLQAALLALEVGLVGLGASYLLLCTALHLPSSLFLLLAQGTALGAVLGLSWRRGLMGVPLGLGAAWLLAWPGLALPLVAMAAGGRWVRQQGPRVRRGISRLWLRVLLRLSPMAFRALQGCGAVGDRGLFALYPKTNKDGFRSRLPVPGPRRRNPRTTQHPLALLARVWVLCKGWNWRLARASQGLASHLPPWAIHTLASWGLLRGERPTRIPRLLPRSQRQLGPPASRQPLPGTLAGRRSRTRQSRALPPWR

TrkC = molecular target: T8, TrkC (Homo sapiens, UniProt Q16288)
T8 construct: gene NTRK3

Zipk = molecular target: T9, Zipk (Homo sapiens, UniProt O43293)
T9 construct: gene DAPK3

_PKCtheta = molecular target: T10, _PKCtheta (Homo sapiens, UniProt Q04759)
T10 construct: gene PRKCQ

Measured: IC50

Chain of CAMKK2 (Q96RR4 whole entry): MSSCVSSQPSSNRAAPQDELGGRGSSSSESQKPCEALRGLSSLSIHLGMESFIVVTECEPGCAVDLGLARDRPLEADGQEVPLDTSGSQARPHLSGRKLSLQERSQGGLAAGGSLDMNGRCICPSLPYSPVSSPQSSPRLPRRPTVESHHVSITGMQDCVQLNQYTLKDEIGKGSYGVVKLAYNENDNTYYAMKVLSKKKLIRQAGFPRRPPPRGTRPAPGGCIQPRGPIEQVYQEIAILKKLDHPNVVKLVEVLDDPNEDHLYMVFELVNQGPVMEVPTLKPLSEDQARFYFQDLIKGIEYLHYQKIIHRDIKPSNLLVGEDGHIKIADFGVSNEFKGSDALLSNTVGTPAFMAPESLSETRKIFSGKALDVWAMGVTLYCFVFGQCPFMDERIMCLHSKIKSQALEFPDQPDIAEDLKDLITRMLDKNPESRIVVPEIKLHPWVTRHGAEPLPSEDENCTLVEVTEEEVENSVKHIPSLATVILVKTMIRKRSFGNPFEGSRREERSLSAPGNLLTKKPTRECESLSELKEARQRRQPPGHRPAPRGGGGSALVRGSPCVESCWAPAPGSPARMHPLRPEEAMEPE

CC(C)CCN[C@@H]1CCc2cc(O)c(N3CC(=O)NS3(=O)=O)c(F)c2C1 [AC484, ABBV-CLS-484]
> 10 µM: all assays above
